Source: US12390537B2, “Compositions of polymeric microdevices and methods of use thereof in cancer immunotherapy” (Massachusetts Institute of Technology, priority 2020, dated 2025)

Test system: apoptotic cells in B16F10 tumors
Assay: TUNEL staining of tumor sections
Assay type: in vivo, mice
Details: cGAMP-MPs single injection, cGAMP-S three injections
Description: Tumor sections (5 μm) were fixed with 4% paraformaldehyde, blocked with 3% bovine serum albumin, and permeabilized with 0.1% Triton X-100 in PBS. The tumor sections were then incubated with anti-CD8 alpha antibody (1:200, Abcam, cat. no. ab217344) at 4° C. overnight and goat anti-rabbit IgG H&L (Alexa Fluor® 488) (1:1000, Abcam, cat. no. ab150077) secondary antibody at room temperature for 1 h. Apoptotic tumor cells were stained using a in situ cell death detection kit (Roche) according to the manufacturer's instructions. Images were acquired on a Nikon A1R Ultra-Fast Spectral Scanning Confocal Microscope (Shinagawa, Tokyo).

Nc1nc2c(ncn2[C@@H]2O[C@@H]3COP(=O)(O)O[C@H]4[C@@H](O)[C@H](n5cnc6c(N)ncnc65)O[C@@H]4COP(=O)(O)O[C@H]3[C@H]2O)c(=O)[nH]1 [cGAMP-S, 3′3′-cGAMP]
apoptotic cells (TUNEL): greater abundance of apoptotic cells
